Results reported in patent US11046694B2, “Compounds and methods for treating bacterial infections” (Entasis Therapeutics, Inc., priority 2018, dated 2021).
≈ marks a conversion by molar mass, not a printed value. Structures can show the parent of a compound that is named as a salt.

What was measured:
P. aeruginosa PBP1a = P. aeruginosa PBP1a (Pseudomonas aeruginosa, UniProt Q07806); assay type: biochemical; details: P. aeruginosa PBP1a 60 nM, BOCILLIN FL 30 nM, pH 7.0
A. baumannii (ARC3495) = assay: MIC against A. baumannii; details: Acinetobacter baumannii, read-out: A. baumannii MIC (ARC3495) (mg/L)
P. aeruginosa PBP3 = P. aeruginosa PBP3 (Pseudomonas aeruginosa, UniProt G3XD46); assay type: biochemical; details: P. aeruginosa PBP3 60 nM, BOCILLIN FL 30 nM, pH 7.0
[1] = tested on: K. pneumoniae (ATCC700603); assay: MIC against K. pneumoniae; details: Klebsiella pneumoniae, ATCC700603, read-out: K. pneumoniae MIC (ATCC700603)
P. aeruginosa WT (PAO1) = assay: MIC, CLSI broth microdilution, P. aeruginosa; assay type: cell-based; details: Pseudomonas aeruginosa, PAO1; CLSI broth microdilution; read-out: P. aeruginosa WT (PAO1) MIC
P. aeruginosa PBP2 = target: T1, P. aeruginosa PBP2 (Pseudomonas aeruginosa, UniProt Q9X6V3); assay type: biochemical; details: P. aeruginosa PBP2 300 nM, BOCILLIN FL 30 nM, pH 6.2
T1 sequence (Q9X6V3 1-646): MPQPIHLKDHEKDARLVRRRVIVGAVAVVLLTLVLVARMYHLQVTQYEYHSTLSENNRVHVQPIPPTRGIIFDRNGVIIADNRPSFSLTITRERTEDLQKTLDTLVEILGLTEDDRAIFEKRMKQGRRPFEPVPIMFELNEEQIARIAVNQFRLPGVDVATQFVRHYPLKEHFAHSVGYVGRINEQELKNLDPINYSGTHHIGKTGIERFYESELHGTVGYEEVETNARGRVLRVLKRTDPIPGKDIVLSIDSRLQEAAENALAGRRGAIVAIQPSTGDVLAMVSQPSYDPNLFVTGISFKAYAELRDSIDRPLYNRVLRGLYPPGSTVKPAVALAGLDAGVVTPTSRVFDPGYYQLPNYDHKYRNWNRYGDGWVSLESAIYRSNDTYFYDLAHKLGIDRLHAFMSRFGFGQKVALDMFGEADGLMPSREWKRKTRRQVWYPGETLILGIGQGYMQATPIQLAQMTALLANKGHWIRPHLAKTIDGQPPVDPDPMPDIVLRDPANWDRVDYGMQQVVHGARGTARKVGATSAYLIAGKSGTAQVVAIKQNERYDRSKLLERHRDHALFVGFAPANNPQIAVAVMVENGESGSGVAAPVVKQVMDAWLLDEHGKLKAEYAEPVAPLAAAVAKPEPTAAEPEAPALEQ

E. coli (ATCC25922) = assay: MIC against E. coli; details: Escherichia coli, ATCC25922, read-out: E. coli MIC (ATCC25922) (mg/L)

Chain of P. aeruginosa PBP3 (G3XD46 whole entry): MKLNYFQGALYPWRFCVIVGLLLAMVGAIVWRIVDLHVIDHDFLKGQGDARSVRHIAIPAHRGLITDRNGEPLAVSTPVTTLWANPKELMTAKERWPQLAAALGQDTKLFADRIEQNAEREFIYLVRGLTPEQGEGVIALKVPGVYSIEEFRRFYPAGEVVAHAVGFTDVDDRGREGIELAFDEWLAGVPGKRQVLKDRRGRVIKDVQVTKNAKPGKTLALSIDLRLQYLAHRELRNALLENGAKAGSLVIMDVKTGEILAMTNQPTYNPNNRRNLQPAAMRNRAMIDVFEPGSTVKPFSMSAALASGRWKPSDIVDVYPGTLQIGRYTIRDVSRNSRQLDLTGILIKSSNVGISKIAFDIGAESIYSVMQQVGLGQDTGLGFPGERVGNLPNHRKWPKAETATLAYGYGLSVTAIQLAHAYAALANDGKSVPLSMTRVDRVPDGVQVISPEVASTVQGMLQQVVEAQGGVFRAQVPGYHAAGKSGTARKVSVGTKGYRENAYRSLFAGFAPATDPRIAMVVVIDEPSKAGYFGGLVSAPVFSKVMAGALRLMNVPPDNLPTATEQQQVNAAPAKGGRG
Chain of P. aeruginosa PBP1a (Q07806 whole entry): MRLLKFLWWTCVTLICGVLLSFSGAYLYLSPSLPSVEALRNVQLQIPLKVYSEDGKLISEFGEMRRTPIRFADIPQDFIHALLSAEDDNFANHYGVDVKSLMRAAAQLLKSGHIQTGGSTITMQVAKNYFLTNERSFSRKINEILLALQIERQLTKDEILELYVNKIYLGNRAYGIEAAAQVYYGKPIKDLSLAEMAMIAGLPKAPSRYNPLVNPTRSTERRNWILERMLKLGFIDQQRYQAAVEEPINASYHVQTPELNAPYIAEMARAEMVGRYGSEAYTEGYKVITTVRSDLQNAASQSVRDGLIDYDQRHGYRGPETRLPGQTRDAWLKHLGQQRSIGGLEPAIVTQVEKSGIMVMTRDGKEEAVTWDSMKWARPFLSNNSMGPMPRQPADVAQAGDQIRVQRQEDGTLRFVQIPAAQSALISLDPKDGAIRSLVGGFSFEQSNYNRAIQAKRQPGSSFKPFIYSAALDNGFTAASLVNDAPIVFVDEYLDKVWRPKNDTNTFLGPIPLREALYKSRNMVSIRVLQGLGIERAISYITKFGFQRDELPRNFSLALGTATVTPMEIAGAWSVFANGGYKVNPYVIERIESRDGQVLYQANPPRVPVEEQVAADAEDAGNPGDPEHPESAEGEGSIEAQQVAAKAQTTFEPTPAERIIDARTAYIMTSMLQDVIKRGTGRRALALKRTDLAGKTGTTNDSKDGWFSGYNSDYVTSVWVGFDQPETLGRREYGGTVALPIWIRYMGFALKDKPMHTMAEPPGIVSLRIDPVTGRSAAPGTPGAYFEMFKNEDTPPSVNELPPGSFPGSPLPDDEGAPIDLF

SMILES	PBP1a acylation rate, k(on) (M^−1 · s^−1) (P. aeruginosa PBP1a)	MIC (A. baumannii (ARC3495)) [mg/L]	PBP3 acylation rate, k(on) (M^−1 · s^−1) (P. aeruginosa PBP3)	MIC [1] [µg/mL]	MIC (P. aeruginosa WT (PAO1)) [µg/mL]	PBP2 acylation rate, k(on) (M^−1 · s^−1) (P. aeruginosa PBP2)	MIC (E. coli (ATCC25922)) [mg/L]
CN/C(=N\O)[C@@H]1c2c(cnn2C)[C@@H]2CN1C(=O)N2OS(=O)(=O)O (stereo in doubt) [Example 1, sodium (4R,8S)-8-((Z)—N′-hydroxy-N-methylcarbamimidoyl)-1-methyl-6-oxo-4,8-dihydro-1H-4,7-methanopyrazolo[3,4-e][1,3]diazepin-5(6H)-yl sulfate]	** (** represents a k(on) of 100 to 10,000 M^−1 · s^−1)	< 8	*** (*** represents a k(on) > 10,000 M^−1 · s^−1)	< 8	< 8	* (* represents a k(on) < 100 M^−1 · s^−1)	< 8
Cn1ncc2c1[C@@H](/C(=N/O)NCc1nc(N)cs1)N1C[C@@H]2N(OS(=O)(=O)O)C1=O [Example 51, (4R,8S)-8-((Z)—N-((4-aminothiazol-2-yl)methyl)-N′-hydroxycarbamimidoyl)-1-methyl-6-oxo-4,8-dihydro-1H-4,7-methanopyrazolo[3,4-e][1,3]diazepin-5(6H)-yl hydrogen sulfate]	** (** represents a k(on) of 100 to 10,000 M^−1 · s^−1)	> 16	** (** represents a k(on) of 100 to 10,000 M^−1 · s^−1)	> 16	> 16	* (* represents a k(on) < 100 M^−1 · s^−1)	< 8
CC1C([C@@H]2c3c(cnn3C)[C@@H]3CN2C(=O)N3OS(=O)(=O)O)=NOC1CO (mixture of isomers) [Example 39, Pyridium (4R,8S)-8-(5-(hydroxymethyl)-4-methyl-4,5-dihydroisoxazol-3-yl)-1-methyl-6-oxo-4,8-dihydro-1H-4,7-methanopyrazolo[3,4-e][1,3]diazepin-5(6H)-yl hydrogen sulfate]	* (* represents a k(on) < 100 M^−1 · s^−1)	> 16	** (** represents a k(on) of 100 to 10,000 M^−1 · s^−1)	> 16	> 16	* (* represents a k(on) < 100 M^−1 · s^−1)	< 8
CCN/C(=N\O)[C@@H]1c2c(cnn2C)[C@@H]2CN1C(=O)N2OS(=O)(=O)O (racemic) [Example 5]	** (** represents a k(on) of 100 to 10,000 M^−1 · s^−1)	> 16	** (** represents a k(on) of 100 to 10,000 M^−1 · s^−1)	> 16	> 16	* (* represents a k(on) < 100 M^−1 · s^−1)	< 8
Cn1ncc2c1[C@@H](/C(=N/O)NCc1ccc(N)cc1)N1C[C@@H]2N(OS(=O)(=O)O)C1=O (racemic) [Example 12]	** (** represents a k(on) of 100 to 10,000 M^−1 · s^−1)	> 16	** (** represents a k(on) of 100 to 10,000 M^−1 · s^−1)	> 16	> 16	* (* represents a k(on) < 100 M^−1 · s^−1)	< 8
CNC(=O)[C@@H]1c2c(cnn2C)[C@@H]2CN1C(=O)N2OS(=O)(=O)O [Comparator 2, reference compound]	* (* represents a k(on) < 100 M^−1 · s^−1)	> 16	** (** represents a k(on) of 100 to 10,000 M^−1 · s^−1)	> 16	> 16	* (* represents a k(on) < 100 M^−1 · s^−1)	< 8
CN/C(=N\O)[C@H]1c2c(cnn2C)[C@H]2CN1C(=O)N2OS(=O)(=O)O (stereo in doubt) [Example 41, Sodium (4S*,8R*)-8-((Z)—N′-hydroxy-N-methylcarbamimidoyl)-1-methyl-6-oxo-4,8-dihydro-1H-4,7-methanopyrazolo[3,4-e][1,3]diazepin-5(6H)-yl hydrogen sulfate]	* (* represents a k(on) < 100 M^−1 · s^−1)	> 16	** (** represents a k(on) of 100 to 10,000 M^−1 · s^−1)	> 16	> 16	* (* represents a k(on) < 100 M^−1 · s^−1)	< 8
CN(N)/C(=N\OS(=O)(=O)O)[C@@H]1c2c(cnn2C)[C@@H]2CN1C(=O)N2OS(=O)(=O)O [Example 72, ((((Z)-((4R,8S)-1-methyl-6-oxo-5-(sulfooxy)-4,5,6,8-tetrahydro-1H-4,7-methanopyrazolo[3,4-e][1,3]diazepin-8-yl)(1-methylhydrazineyl)methylene)amino)oxy)sulfonic acid]	** (** represents a k(on) of 100 to 10,000 M^−1 · s^−1)	> 16	*** (*** represents a k(on) > 10,000 M^−1 · s^−1)	> 16	> 16	* (* represents a k(on) < 100 M^−1 · s^−1)	< 8
CN/C(=N\OCCN)[C@@H]1c2c(cnn2C)[C@@H]2CN1C(=O)N2OS(=O)(=O)O (racemic) [Example 7]	* (* represents a k(on) < 100 M^−1 · s^−1)	> 16	** (** represents a k(on) of 100 to 10,000 M^−1 · s^−1)	8 to 16 (≈ 20.5 to 41.1 µM)	8 to 16 (≈ 20.5 to 41.1 µM)	* (* represents a k(on) < 100 M^−1 · s^−1)	8 to 16 (≈ 20.5 to 41.1 µM)
CN(C)/C(=N\O)[C@@H]1c2c(cnn2C)[C@@H]2CN1C(=O)N2OS(=O)(=O)O [Example 2, (4R,8S)-8-((Z)—N′-hydroxy-N,N-dimethylcarbamimidoyl)-1-methyl-6-oxo-4,8-dihydro-1H-4,7-methanopyrazolo[3,4-e][1,3]diazepin-5(6H)-yl hydrogen sulfate]	** (** represents a k(on) of 100 to 10,000 M^−1 · s^−1)	8 to 16	*** (*** represents a k(on) > 10,000 M^−1 · s^−1)	8 to 16	> 16	* (* represents a k(on) < 100 M^−1 · s^−1)	8 to 16
CN(O)/C(=N\O)[C@@H]1c2c(cnn2C)[C@@H]2CN1C(=O)N2OS(=O)(=O)O (racemic) [Example 9]	** (** represents a k(on) of 100 to 10,000 M^−1 · s^−1)	8 to 16 (≈ 22.1 to 44.2 µM)	** (** represents a k(on) of 100 to 10,000 M^−1 · s^−1)	8 to 16 (≈ 22.1 to 44.2 µM)	< 8	* (* represents a k(on) < 100 M^−1 · s^−1)	< 8
Cn1ncc2c1[C@@H](CN)N1C[C@@H]2N(OS(=O)(=O)O)C1=O [Comparator 1, reference compound]	* (* represents a k(on) < 100 M^−1 · s^−1)	> 16	* (* represents a k(on) < 100 M^−1 · s^−1)	< 8	< 8	*** (*** represents a k(on) > 5,000 M^−1 · s^−1)	< 8
Cn1ncc2c1[C@@H](/C(N)=N/O)N1C[C@@H]2N(OS(=O)(=O)[O-])C1=O.[Na+] [Example 3, Sodium (4R,8S)-8-((Z)—N′-hydroxycarbamimidoyl)-1-methyl-6-oxo-4,8-dihydro-1H-4,7-methanopyrazolo[3,4-e][1,3]diazepin-5(6H)-yl sulfate]	* (* represents a k(on) < 100 M^−1 · s^−1)	> 16	** (** represents a k(on) of 100 to 10,000 M^−1 · s^−1)	< 8	> 16	* (* represents a k(on) < 100 M^−1 · s^−1)	< 8
Cn1ncc2c1[C@@H](c1noc(=O)n1C)N1C[C@@H]2N(OS(=O)(=O)O)C1=O [Example 66, ((4R,8S)-1-methyl-8-(4-methyl-5-oxo-4,5-dihydro-1,2,4-oxadiazol-3-yl)-6-oxo-4,8-dihydro-1H-4,7-methanopyrazolo[3,4-e][1,3]diazepin-5(6H)-yl hydrogen sulfate]	** (** represents a k(on) of 100 to 10,000 M^−1 · s^−1)	> 16	** (** represents a k(on) of 100 to 10,000 M^−1 · s^−1)	> 16	> 16	* (* represents a k(on) < 100 M^−1 · s^−1)	< 8
